# According to US12673961B2 (Agios Pharmaceuticals, Inc., priority 2022, dated 2026):
# Target: T1, human PAH with the R408W mutation (Homo sapiens, UniProt P00439, R408W)
# T1 construct: expressed in transfected cells
# T1 sequence (P00439 1-452 R408W): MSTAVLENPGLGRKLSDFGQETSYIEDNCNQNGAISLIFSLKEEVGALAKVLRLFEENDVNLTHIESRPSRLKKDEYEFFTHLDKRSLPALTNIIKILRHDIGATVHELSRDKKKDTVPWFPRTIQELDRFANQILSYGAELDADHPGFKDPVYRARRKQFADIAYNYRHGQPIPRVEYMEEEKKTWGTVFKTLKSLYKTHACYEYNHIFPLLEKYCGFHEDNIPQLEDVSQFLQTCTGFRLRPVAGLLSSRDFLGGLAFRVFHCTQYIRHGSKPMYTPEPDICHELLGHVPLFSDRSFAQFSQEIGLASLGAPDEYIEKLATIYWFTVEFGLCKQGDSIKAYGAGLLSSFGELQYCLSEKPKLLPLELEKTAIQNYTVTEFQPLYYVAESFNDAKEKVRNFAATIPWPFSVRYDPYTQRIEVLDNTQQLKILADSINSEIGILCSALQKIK
# Test: Cell Based Phenylalanine Flux Assay;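 also: Ten-point dose curve from 2-fold serial dilutions, run in duplicate at 0.5% DMSO final, tracer step used 20 µM sepiapterin and 800 µM labeled phenylalanine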
# Design: scale not given here
# Conditions: A375 cells expressing R408W PAH; 24 hrs with compound, then 20 μM sepiapterin and 800 μM 13C9,15N-Phenylalanine for 4 hours; 13C-Tyrosine in media by LC-MS; average where tested multiple times
row,SMILES,AC50
1,COc1cccn2nc(C3c4nc[nH]c4CCN3C(=O)c3ccnn3C3CC3)cc12 (centres unmarked),"E, E"
2,Cn1cnc(-c2nc(C(F)F)c(C(=O)N3CCc4[nH]cnc4C3c3cc4ccccn4n3)o2)c1 (centres unmarked),"E, E"
3,Cc1cccn2nc(C3c4nc[nH]c4CCN3C(=O)c3ocnc3C(F)(F)F)cc12 (centres unmarked) [listing 1 of 2 here],"E, E"
4,Cc1cccn2nc(C3c4nc[nH]c4CCN3C(=O)c3ccnn3C)cc12 (centres unmarked),"E, E"
5,CC(C)c1cccn2nc(C3c4nc[nH]c4CCN3c3ncccn3)cc12 (centres unmarked),"E, E"
6,Cc1ccn2nc(C3c4nc[nH]c4CCN3C(=O)c3oc(C(C)(C)O)nc3C(F)F)cc2c1 (centres unmarked),"E, E"
7,CC(C)(O)c1nc(C(F)(F)F)c(C(=O)N2CCc3[nH]cnc3C2c2cc3c(Cl)cccn3n2)o1 (centres unmarked),"E, E"
8,Cc1cccn2nc(C3c4nc[nH]c4CCN3C(=O)c3oc(C(C)(C)O)nc3C(F)(F)F)cc12 (centres unmarked),"E, E"
9,FC(F)c1cccn2nc(C3c4nc[nH]c4CCN3c3nnc(-c4ccncn4)o3)cc12 (centres unmarked),"E, E"
10,O=C(c1ocnc1C(F)(F)F)N1CCc2[nH]cnc2C1c1cc2c(Cl)cccn2n1 (centres unmarked),E. E
11,COc1cccn2nc(C3c4nc[nH]c4CCN3C(=O)c3ccnn3C)cc12 (centres unmarked),"E, E"
12,COc1cccn2nc(C3c4nc[nH]c4CCN3C(=O)c3ncnn3C)cc12 (centres unmarked),"E, E"
13,COc1cccn2nc(C3c4nc[nH]c4CCN3C(=O)c3ccnn3C(C)C)cc12 (centres unmarked),"E, E"
14,COc1cccn2nc(C3c4nc[nH]c4CCN3C(=O)c3ccnn3C(F)(F)F)cc12 (centres unmarked),"E, E"
15,Cc1cccn2nc(C3c4nc[nH]c4CCN3C(=O)c3ccnn3C(C)C)cc12 (centres unmarked),"E, E"
16,Cc1cccn2nc(C3c4nc[nH]c4CCN3C(=O)c3ccnn3C(F)(F)F)cc12 (centres unmarked),"E, E"
17,Cc1cccn2nc(C3c4nc[nH]c4CCN3C(=O)c3ocnc3C(F)(F)F)cc12 (centres unmarked) [listing 2 of 2 here],"E, E"
18,"FC(F)c1cccn2nc([C@H]3c4nc[nH]c4CCN3c3nnc(-c4ccncn4)o3)cc12 (single isomer, unassigned)","E, E"
19,"Cc1cccn2nc(C3c4nc[nH]c4CCN3C(=O)c3ccnn3C(F)(F)F)cc12 (single isomer, unassigned)","E, E"
20,"COc1cccn2nc([C@@H]3c4nc[nH]c4CCN3C(=O)c3ccnn3C3CC3)cc12 (single isomer, unassigned)","E, E"
21,"Cn1cnc(-c2nc(C(F)F)c(C(=O)N3CCc4[nH]cnc4[C@H]3c3cc4ccccn4n3)o2)c1 (single isomer, unassigned)","E, E"

# Same assay, conditions: A375 cells expressing R408W PAH; 24 hrs with compound, then 20 μM sepiapterin and 800 μM 13C9,15N-Phenylalanine for 4 hours; 13C-Tyrosine in media by LC-MS; average where tested multiple times; read-out: AC50
row,SMILES,AC50 [µM]
1,COc1cccn2nc(C3c4nc[nH]c4CCN3C(=O)c3cc(C(C)(C)C)nn3C)cc12 (centres unmarked),> 5
2,N#Cc1ncoc1C(=O)N1CCc2[nH]cnc2C1c1nn2ccccc2c1Br (centres unmarked),1 to 5
3,Fc1ccc(-c2nnc(N3CCc4[nH]cnc4C3c3cc4ccccn4n3)o2)nc1 (centres unmarked),> 5
4,Cn1cc(N2CCc3[nH]cnc3C2c2cc3ccccn3n2)cn1 (centres unmarked),> 5
5,CC1(c2nnc(N3CCc4[nH]cnc4C3c3cc4ccccn4n3)o2)CC1 (centres unmarked),1 to 5
6,O=C(c1nnc(-c2cc[nH]n2)o1)N1CCc2[nH]cnc2C1c1cc2ccccn2n1 (centres unmarked),1 to 5
7,CC(C)(F)c1nnc(C(=O)N2CCc3[nH]cnc3C2c2cc3cc(C(F)(F)F)ccn3n2)o1 (centres unmarked),1 to 5
8,O=C(c1nnc(C2CC(F)(F)C2)o1)N1CCc2[nH]cnc2C1c1cc2cccc(F)n2n1 (centres unmarked),1 to 5
9,O=C(c1nnc(-c2cn[nH]c2)o1)N1CCc2[nH]cnc2C1c1cc2c(F)cccn2n1 (centres unmarked),1 to 5
10,Cc1nnc(C(=O)N2CCc3[nH]cnc3C2c2cc3ccc(F)cn3n2)o1 (centres unmarked),1 to 5
11,Cc1nnc(C(=O)N2CCc3[nH]cnc3C2c2cc3cccc(C(F)F)n3n2)o1 (centres unmarked),1 to 5
12,Nc1cnc(N2CCc3[nH]cnc3C2c2cc3cccc(C(F)F)n3n2)nc1 (centres unmarked),> 5
13,Cn1cnc(-c2nnc(C(=O)N3CCc4[nH]cnc4C3c3cc4cccc(C(F)F)n4n3)o2)c1 (centres unmarked),1 to 5
14,O=C(c1nnc(-c2ncccn2)o1)N1CCc2[nH]cnc2C1c1cc2c(C3CC3)cccn2n1 (centres unmarked),> 5
15,COc1cccn2nc(C3c4nc[nH]c4CCN3C(=O)c3nnc(C(C)(C)O)o3)cc12 (centres unmarked),> 5
16,COCc1ncc(C(=O)N2CCc3[nH]cnc3C2c2cc3ccccn3n2)o1 (centres unmarked),1 to 5
17,c1ccn2nc(C3c4nc[nH]c4CCN3c3nnc(C4CC4)o3)cc2c1 (centres unmarked),1 to 5
18,COCc1ccc2c(C(=O)N3CCc4[nH]cnc4C3c3cc4cccc(F)n4n3)cnn2c1 (centres unmarked),1 to 5
19,"Cc1ccn2nc(C3c4nc[nH]c4CCN3C(=O)c3nnc(-c4cnn(C)c4)o3)cc2c1 (single isomer, unassigned)",> 5
20,"Cn1cncc1-c1nnc(C(=O)N2CCc3[nH]cnc3[C@@H]2c2cc3cccc(C(F)F)n3n2)o1 (single isomer, unassigned)",> 5
21,"Fc1cccc2cc([C@H]3c4nc[nH]c4CCN3c3ncccn3)nn12 (single isomer, unassigned)",> 5
22,"Cc1nnc(C(=O)N2CCc3[nH]cnc3[C@@H]2c2cc3cccc(C)n3n2)o1 (single isomer, unassigned)",> 5
23,"Cn1nc(C(F)F)cc1C(=O)N1CCc2[nH]cnc2[C@@H]1c1cc2ccccn2n1 (single isomer, unassigned)",> 5
24,"Cn1nc(C(C)(C)C)cc1C(=O)N1CCc2[nH]cnc2[C@@H]1c1cc2c(F)cccn2n1 (single isomer, unassigned)",> 5
25,"O=C(Cc1cnn2ccccc12)N1CCc2[nH]cnc2[C@H]1c1cc2ccccn2n1 (single isomer, unassigned)",1 to 5

row,SMILES,AC50 [µM]
1,"Cn1cncc1-c1nnc(C(=O)N2CCc3[nH]cnc3[C@H]2c2cc3cccc(C(F)(F)F)n3n2)o1 (single isomer, unassigned)",1 to 5
2,"Cn1ccc(-c2nnc(C(=O)N3CCc4[nH]cnc4[C@H]3c3cc4cc(C(F)(F)F)ccn4n3)o2)n1 (single isomer, unassigned)",1 to 5
3,"Cc1cccn2nc([C@@H]3c4nc[nH]c4CCN3c3nnc(-c4cnn(C)c4)o3)cc12 (single isomer, unassigned)",1 to 5
4,"Cn1cc(-c2nnc(N3CCc4[nH]cnc4[C@H]3c3cc4c(C(F)(F)F)cccn4n3)o2)cn1 (single isomer, unassigned)",1 to 5
5,"O=C(c1nnc(C2CC(F)(F)C2)o1)N1CCc2[nH]cnc2[C@H]1c1cc2cccc(C(F)F)n2n1 (single isomer, unassigned)",1 to 5
6,"Cc1nnc(C(=O)N2CCc3[nH]cnc3[C@H]2c2cc3c(OC(F)F)cccn3n2)o1 (single isomer, unassigned)",1 to 5
7,"COc1cccn2nc([C@@H]3c4nc[nH]c4CCN3C(=O)c3nnc(-c4cnn(C(F)(F)F)c4)o3)cc12 (single isomer, unassigned)",1 to 5
8,"Cc1nnc(N2CCc3[nH]cnc3[C@H]2c2cc3cccc(C(F)F)n3n2)o1 (single isomer, unassigned)",> 5
9,"Fc1cccc2cc([C@@H]3c4nc[nH]c4CCN3c3ncccn3)nn12 (single isomer, unassigned)",1 to 5
10,"Nc1cnc(N2CCc3[nH]cnc3[C@H]2c2cc3ccccn3n2)nc1 (single isomer, unassigned)",> 5
11,"Cc1cccc2cc([C@@H]3c4nc[nH]c4CCN3C(=O)c3nnc(C(C)(C)O)o3)nn12 (single isomer, unassigned)",1 to 5
12,"Cc1c([C@@H]2c3nc[nH]c3CCN2C(=O)c2nnc(C(C)(C)O)o2)nn2ccccc12 (single isomer, unassigned)",> 5
13,"O=C(c1nnc(-c2ncccn2)o1)N1CCc2[nH]cnc2[C@H]1c1cc2c(OC(F)F)cccn2n1 (single isomer, unassigned)",1 to 5
14,"COc1cccn2nc([C@@H]3c4nc[nH]c4CCN3c3nnc(-c4ccccn4)o3)cc12 (single isomer, unassigned)",1 to 5
15,"CC(C)(O)c1noc(C(=O)N2CCc3[nH]cnc3[C@H]2c2cc3ccccn3n2)n1 (single isomer, unassigned)",> 5
16,"c1ccn2nc(C3c4nc[nH]c4CCN3c3nnc(C4CCC4)o3)cc2c1 (single isomer, unassigned)",1 to 5
17,"FC(F)(F)c1cccc2cc([C@@H]3c4nc[nH]c4CCN3c3nnc(C4CC4)o3)nn12 (single isomer, unassigned)",1 to 5
18,"Cc1nnc(C(=O)N2CCc3[nH]cnc3C2c2nn3ccccc3c2C)o1 (single isomer, unassigned)",1 to 5
19,"Cn1nc(C(F)F)nc1C(=O)N1CCc2[nH]cnc2[C@H]1c1cc2ccc(F)cn2n1 (single isomer, unassigned)",1 to 5
20,"Cn1nc(C2CC2)nc1C(=O)N1CCc2[nH]cnc2C1c1cc2c(F)cccn2n1 (single isomer, unassigned)",1 to 5
21,"O=C(c1nnc(N2CCOCC2)o1)N1CCc2[nH]cnc2[C@H]1c1cc2ccccn2n1 (single isomer, unassigned)",1 to 5
22,"COCc1ccc2c(C(=O)N3CCc4[nH]cnc4[C@H]3c3cc4ccccn4n3)cnn2c1 (single isomer, unassigned)",1 to 5
23,"Cc1cccn2nc([C@@H]3c4nc[nH]c4CCN3c3nnc(C(=O)N(C)C)o3)cc12 (single isomer, unassigned)",1 to 5
24,"CN(C)c1nnc(C(=O)N2CCc3[nH]cnc3[C@H]2c2cc3ccccn3n2)o1 (single isomer, unassigned)",1 to 5
25,"Cc1nc([C@@H](C)O)oc1C(=O)N1CCc2[nH]cnc2[C@H]1c1cc2cccc(C)n2n1 (single isomer, unassigned)",1 to 5
